In article PMC6407917, “Identification of GSK3186899/DDD853651 as a Preclinical Development Candidate for the Treatment of Visceral Leishmaniasis” (Journal of Medicinal Chemistry, 2018):

Tests used:
Experiment in all cases: biochemical
Parameters in all cases: species or system HEK293/K-562/placenta mixed human extract; Kinobeads chemoproteomic competition binding, quantified by TMT LC-MS/MS, dose response up to 20 uM
[1] = target: MASTL (Homo sapiens, UniProt Q96GX5)
[2] = target: RPS6KA1 (Homo sapiens, UniProt Q15418)
[3] = target: PIP4K2C (Homo sapiens, UniProt Q8TBX8)
[4] = target: MARK4 (Homo sapiens, UniProt Q96L34)
[5] = target: FRK (Homo sapiens, UniProt P42685)
[6] = target: KDR (Homo sapiens, UniProt P35968)
[7] = target: EIF2AK1 (Homo sapiens, UniProt Q9BQI3)
[8] = target: CSNK2A2 (Homo sapiens, UniProt P19784)
[9] = target: CAMK1 (Homo sapiens, UniProt Q14012)
[10] = target: EPHB2 (Homo sapiens, UniProt P29323)
[11] = target: ARAF (Homo sapiens, UniProt P10398)
[12] = target: RB1CC1 (Homo sapiens, UniProt Q8TDY2)
[13] = target: TESK2 (Homo sapiens, UniProt Q96S53)
[14] = target: CLK1 (Homo sapiens, UniProt P49759)
[15] = target: IKBKG (Homo sapiens, UniProt Q9Y6K9)
[16] = target: FGR (Homo sapiens, UniProt P09769)
[17] = target: GSK3B (Homo sapiens, UniProt P49841)
[18] = target: EPHB4 (Homo sapiens, UniProt P54760)
[19] = target: PTK2 (Homo sapiens, UniProt Q05397)
[20] = target: EPHA7 (Homo sapiens, UniProt Q15375)
[21] = target: PRKACA (Homo sapiens, UniProt P17612)

Measured: IC50

Sequence of MASTL (Q96GX5 whole entry): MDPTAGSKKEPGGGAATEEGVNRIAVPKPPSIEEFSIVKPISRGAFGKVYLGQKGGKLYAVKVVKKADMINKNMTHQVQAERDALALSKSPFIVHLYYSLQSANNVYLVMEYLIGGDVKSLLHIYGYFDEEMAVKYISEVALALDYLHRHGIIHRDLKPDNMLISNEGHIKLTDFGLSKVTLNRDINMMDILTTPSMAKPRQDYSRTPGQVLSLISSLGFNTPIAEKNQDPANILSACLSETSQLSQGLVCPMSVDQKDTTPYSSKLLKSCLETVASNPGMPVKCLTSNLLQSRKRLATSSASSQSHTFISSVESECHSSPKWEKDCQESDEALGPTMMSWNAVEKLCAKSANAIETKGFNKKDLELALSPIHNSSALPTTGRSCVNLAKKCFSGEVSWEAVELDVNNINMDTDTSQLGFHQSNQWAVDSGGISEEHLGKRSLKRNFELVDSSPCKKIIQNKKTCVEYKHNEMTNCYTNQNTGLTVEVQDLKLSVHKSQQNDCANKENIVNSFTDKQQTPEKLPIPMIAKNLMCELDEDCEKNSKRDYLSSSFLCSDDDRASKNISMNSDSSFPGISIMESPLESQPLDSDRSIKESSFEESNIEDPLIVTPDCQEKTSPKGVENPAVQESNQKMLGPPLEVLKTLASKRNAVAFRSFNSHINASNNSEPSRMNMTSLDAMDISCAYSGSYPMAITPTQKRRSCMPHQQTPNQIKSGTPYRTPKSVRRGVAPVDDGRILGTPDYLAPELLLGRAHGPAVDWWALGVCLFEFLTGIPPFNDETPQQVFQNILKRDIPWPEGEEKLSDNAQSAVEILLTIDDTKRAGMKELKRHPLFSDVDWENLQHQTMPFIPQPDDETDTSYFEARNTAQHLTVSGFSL
Sequence of FRK (P42685 whole entry): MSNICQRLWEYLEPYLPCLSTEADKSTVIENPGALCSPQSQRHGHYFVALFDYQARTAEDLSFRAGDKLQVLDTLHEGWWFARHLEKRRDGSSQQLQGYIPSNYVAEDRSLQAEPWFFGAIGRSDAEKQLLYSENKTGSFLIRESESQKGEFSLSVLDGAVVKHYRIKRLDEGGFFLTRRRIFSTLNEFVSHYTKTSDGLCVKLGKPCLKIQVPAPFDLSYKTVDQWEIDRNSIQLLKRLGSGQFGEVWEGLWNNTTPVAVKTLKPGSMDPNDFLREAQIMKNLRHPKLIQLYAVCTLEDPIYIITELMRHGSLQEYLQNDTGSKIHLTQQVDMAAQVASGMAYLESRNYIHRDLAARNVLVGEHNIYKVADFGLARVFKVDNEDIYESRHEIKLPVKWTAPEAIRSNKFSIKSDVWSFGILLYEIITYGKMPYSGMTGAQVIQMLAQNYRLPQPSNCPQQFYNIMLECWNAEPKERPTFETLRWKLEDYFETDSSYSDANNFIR
Sequence of EIF2AK1 (Q9BQI3 whole entry): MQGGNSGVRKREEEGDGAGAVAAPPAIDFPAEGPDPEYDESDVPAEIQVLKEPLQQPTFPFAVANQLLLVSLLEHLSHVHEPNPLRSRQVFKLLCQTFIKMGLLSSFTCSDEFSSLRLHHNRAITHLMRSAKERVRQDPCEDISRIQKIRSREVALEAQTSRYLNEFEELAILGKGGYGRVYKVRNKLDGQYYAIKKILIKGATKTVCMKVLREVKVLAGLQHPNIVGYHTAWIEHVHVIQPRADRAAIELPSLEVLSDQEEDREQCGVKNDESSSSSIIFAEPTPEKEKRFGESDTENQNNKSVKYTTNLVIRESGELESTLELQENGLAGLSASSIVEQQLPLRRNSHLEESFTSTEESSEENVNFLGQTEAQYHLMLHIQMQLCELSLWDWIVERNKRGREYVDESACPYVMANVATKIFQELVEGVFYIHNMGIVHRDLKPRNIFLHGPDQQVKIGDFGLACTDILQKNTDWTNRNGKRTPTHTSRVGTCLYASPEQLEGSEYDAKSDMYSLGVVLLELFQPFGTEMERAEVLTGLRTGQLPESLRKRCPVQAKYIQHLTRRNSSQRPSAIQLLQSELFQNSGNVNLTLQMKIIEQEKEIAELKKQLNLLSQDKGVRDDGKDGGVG
Sequence of GSK3B (P49841 whole entry): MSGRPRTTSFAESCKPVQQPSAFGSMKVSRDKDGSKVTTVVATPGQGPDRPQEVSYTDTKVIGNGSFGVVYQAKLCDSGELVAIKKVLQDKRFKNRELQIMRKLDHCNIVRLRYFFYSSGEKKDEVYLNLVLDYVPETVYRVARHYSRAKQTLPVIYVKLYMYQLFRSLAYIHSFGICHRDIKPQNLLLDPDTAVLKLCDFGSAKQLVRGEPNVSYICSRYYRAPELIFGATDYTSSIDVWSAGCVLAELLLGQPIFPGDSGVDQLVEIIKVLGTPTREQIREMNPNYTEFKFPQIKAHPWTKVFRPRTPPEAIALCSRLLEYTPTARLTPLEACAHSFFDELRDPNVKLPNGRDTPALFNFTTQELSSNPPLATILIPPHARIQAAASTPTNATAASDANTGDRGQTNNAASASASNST
Sequence of PIP4K2C (Q8TBX8 whole entry): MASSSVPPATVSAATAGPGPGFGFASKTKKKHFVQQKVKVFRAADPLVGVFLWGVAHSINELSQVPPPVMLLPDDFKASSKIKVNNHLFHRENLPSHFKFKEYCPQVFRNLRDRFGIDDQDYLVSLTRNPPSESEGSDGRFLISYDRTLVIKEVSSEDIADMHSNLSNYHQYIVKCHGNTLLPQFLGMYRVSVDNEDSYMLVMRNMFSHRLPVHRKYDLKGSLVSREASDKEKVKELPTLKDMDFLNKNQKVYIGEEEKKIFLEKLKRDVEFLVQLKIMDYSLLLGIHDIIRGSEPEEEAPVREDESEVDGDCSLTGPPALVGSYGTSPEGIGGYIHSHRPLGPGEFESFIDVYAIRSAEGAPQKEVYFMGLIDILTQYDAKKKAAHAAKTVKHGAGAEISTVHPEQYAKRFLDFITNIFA
Sequence of EPHA7 (Q15375 whole entry): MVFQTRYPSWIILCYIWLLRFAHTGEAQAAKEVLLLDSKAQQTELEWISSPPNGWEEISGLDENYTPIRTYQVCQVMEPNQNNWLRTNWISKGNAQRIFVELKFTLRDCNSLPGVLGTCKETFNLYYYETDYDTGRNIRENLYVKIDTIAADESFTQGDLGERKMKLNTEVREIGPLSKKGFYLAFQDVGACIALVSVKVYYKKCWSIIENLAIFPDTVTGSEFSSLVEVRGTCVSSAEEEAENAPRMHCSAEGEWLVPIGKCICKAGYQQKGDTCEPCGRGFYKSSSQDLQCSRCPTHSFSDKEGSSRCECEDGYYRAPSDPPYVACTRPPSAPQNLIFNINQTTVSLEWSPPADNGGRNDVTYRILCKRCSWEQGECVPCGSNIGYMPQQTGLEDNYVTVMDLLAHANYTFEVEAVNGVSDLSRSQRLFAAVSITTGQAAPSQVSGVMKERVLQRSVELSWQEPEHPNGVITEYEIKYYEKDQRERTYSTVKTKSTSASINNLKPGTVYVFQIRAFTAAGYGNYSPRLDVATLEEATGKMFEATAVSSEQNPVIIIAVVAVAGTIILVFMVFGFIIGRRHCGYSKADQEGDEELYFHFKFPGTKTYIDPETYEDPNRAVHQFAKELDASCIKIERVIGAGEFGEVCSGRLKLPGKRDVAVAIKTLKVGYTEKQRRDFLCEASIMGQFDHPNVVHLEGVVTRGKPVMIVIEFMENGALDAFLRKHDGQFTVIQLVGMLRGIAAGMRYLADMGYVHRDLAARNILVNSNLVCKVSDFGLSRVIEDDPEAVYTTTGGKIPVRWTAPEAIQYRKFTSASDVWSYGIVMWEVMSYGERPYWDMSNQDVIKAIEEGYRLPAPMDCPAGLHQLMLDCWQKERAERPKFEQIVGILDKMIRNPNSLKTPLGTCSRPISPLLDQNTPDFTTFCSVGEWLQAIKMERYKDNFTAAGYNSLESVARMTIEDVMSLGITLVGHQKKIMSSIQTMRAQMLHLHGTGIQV
Sequence of CAMK1 (Q14012 whole entry): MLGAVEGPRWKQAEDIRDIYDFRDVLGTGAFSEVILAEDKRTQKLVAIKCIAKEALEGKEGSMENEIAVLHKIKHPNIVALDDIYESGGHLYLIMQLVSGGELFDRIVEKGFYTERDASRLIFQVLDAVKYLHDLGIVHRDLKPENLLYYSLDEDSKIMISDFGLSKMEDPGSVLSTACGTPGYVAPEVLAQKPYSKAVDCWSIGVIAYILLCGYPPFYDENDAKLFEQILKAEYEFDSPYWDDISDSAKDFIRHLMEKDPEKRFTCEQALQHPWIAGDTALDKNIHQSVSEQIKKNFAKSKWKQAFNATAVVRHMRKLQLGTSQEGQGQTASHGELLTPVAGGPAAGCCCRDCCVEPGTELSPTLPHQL
Sequence of FGR (P09769 whole entry): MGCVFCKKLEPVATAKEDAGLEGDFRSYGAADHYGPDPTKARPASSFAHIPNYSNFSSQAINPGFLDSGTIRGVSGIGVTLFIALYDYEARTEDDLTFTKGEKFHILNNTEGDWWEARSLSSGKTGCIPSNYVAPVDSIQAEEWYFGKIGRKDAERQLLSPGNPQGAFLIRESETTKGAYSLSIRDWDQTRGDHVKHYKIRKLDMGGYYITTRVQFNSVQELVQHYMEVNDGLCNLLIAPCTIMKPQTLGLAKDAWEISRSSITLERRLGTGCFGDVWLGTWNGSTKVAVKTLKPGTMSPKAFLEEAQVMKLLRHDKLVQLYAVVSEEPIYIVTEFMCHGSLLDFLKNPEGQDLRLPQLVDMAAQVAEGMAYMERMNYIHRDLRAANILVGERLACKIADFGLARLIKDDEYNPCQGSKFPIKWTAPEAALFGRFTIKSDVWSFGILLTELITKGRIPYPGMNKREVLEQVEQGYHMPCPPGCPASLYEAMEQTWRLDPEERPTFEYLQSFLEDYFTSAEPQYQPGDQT

COc1nc(N[C@H]2CC[C@H](NS(=O)(=O)CC(C)C)CC2)nc2[nH]nc(N3CCOC[C@H]3C)c12 [compound 39, N-(trans-4-((4-Methoxy-3-((R)-3-methylmorpholino)-1H-pyrazolo[3,4-d]pyrimidin-6-yl)amino)cyclohexyl)-2-methylpropane-1-sulfonamide]
≥ 20 µM: all assays above
